According to US20130211059A1, “COMPOSITION SUPPRESSING MATRIX-METALLOPROTEINASE ACTIVITY” (University of Miyazaki, priority 2010, published 2013):

Tests used:
MMP-9 [1] = assay: MMP-9 activity in ex vivo culture of human AAA wall, zymogram; format: cell-based; conditions: FIG. 2 D
Protocol: (§1) The human AAA wall was homogenized, the obtained samples were evaluated for GLUT-3 protein expression by Western blot, and MMP-9 activity was determined by zymography. Western blot analysis was conducted by subjecting 10 μg of the extracted protein (quantified) to SDS-polyacrylamide gel electrophoresis for separation, subsequently transferring and immobilizing the resultant onto a membrane to prepare a blot, carrying out a reaction of the blot with an anti-GLUT-3 antibody for 1 hour and then with a secondary antibody, and then detecting signals. Meanwhile, zymogram analysis was conducted by subjecting 5 μg of the extracted protein (quantified) to electrophoresis on a zymogram gel plate to separate the protein. The method employed thereafter was carried out according to the instructions of a kit (Invitrogen). After 24 hours of a reaction at 37° C., zymogram gel was stained overnight with a Coomassie blue solution and then destained, and then enzyme activity was detected.
(§2) In this example, 2-DG, cytochalasin, or phloretin was administered to evaluate the suppression of MMP-9 activity in cultured macrophages or the human AAA wall, using a zymogram used in Example 1.
In the meantime, U937 cells were pretreated with a glucose transporter inhibitor (cytochalasin or phloretin), and then stimulated with 10 nmol/L PMA. […]

[2] = system: abdominal aorta aneurysm formation; assay: Angiotensin II-induced apolipoprotein E knockout mouse aneurysm model; format: in vivo; conditions: angiotensin II-induced apolipoprotein E knockout mice; 1 g/kg body weight/day intraperitoneally for 28 days; FIG. 4
Protocol: Each angiotensin II-induced apolipoprotein E knockout mouse was produced by subcutaneous administration of a pressor peptide, angiotensin II (1000 ng/kg/min), to a 12-week-old apolipoprotein E-deficient mouse via osmotic pump for 28 days. After osmotic pump implantation, 2-DG was intraperitoneally administered at 1 g/kg body weight/day for 28 days (the number of mice (n)=14). After 28 days of administration, the abdominal aorta was removed and then the aortic diameter was measured. As negative control, the abdominal aorta was similarly removed from mice (the number of mice (n)=14) produced by administration of saline instead of 2-DG, and then the aortic diameter was measured.

SIRT1 gene = SIRT1 gene expression in cultured macrophages; format: cell-based; conditions: U937 cells pretreated with 2 mg/mL, then PMA; 24 hours after stimulation; FIG. 6 C
Protocol: In this example, the effect of 2-DG was evaluated on the expression of SIRT1 gene in cultured macrophages. […] Gene expression was evaluated at the mRNA level in a manner similar to that used in Example 4.
In the meantime, 2-DG (2 mg/mL) was pretreated to the U937 cell culture solution, and stimulated them with PMA. As control cells, monocytic cells (U937) to which neither phorbol ester nor 2-DG had been administered and monocytic cells (U937) to which only phorbol ester had been administered were used. At 24 hours after stimulation, SIRT1 gene expression levels were compared, and the results are shown in panel C of FIG. 6.

MMP-9 [3] = assay: PMA-induced MMP-9 activity in cultured macrophages (U937), gelatin zymogram; format: cell-based; conditions: U937 cells pretreated with substance, then stimulated with 10 nmol/L PMA, FIG. 2 A-C
Protocol: as §1, §2
In the meantime, U937 cells were pretreated with a glucose transporter inhibitor (cytochalasin or phloretin), and then stimulated with 10 nmol/L PMA. In addition, U937 cells were pretreated with 2-DG and then stimulated with 10 nmol/L PMA. Furthermore, 2-DG was administered to the ex vivo culture of human AAA wall.
In panels A to D, “MMP-9 (L)” denotes latent MMP-9 activity and “MMP-9 (A)” denotes active MMP-9 activity. In addition, in panel D, “MMP-2 (L)” denotes latent MMP-2 activity and “MMP-2 (A)” denotes active MMP-2 activity. Moreover, in panel D, “control” denotes an aqueous solvent not containing 2-DG.

[4] = system: abdominal aorta aneurysm formation; assay: Calcium chloride application-induced mouse aneurysm model; format: in vivo
Protocol: The mouse aneurysm model was induced by peri-aortic application of calcium chloride to 8-week-old male C57BL/6J mice.
2-DG was intraperitoneally administered at 100 mg/kg body weight or 1 g/kg body weight/day to the mouse aneurysm model for 28 days. After 28 days, the abdominal aorta was removed and then the diameter thereof was measured. An abdominal aorta was removed similarly from mice to which saline had been administered instead of 2-DG after application of calcium chloride as a negative control, and a mouse that had been treated in the same manner except for application of sodium chloride instead of calcium chloride as a control, and then the diameter of each thereof was measured.
Panel B is a graph showing the diameter (mm) of the abdominal aorta removed from each group.

[5] = system: MMP-1, CCL-2, TNF-α, MMP-9, CCL-8 and IL-6 gene expression; assay: Expression of atherosclerosis/aneurysm-related genes in cultured macrophages by DNA microarray; format: cell-based; conditions: U937 cells pretreated, then 10 nmol/L PMA, 24 hours after stimulation, FIG. 5
Protocol: In this example, the effects of 2-DG on gene expressions associated with development of atherosclerosis and/or aneurysm in cultured macrophages were evaluated by DNA microarray (Agilent). The evaluated genes associated with atherosclerosis induction- and/or aneurysm formation were MMP-1 and MMP-9, chemokines (CCL-2 and CCL-8) and inflammatory cytokines (TNF-α and IL-6) (Libby P., Inflammation in atherosclerosis, Nature 2002, 420 (6917): 868-874 and Tung W S, Lee J K, Thompson R W., Simultaneous analysis of 1176 gene products in normal human aorta and abdominal aortic aneurysms using a membrane-based complementary DNA expression array. J Vasc Surg. 2001, 34(1): 143-150). Monocytic cells (U937) were stimulated with 10 nmol/L phorbol ester (PMA) for differentiation to macrophages. Some U937 cells were pretreated with 2-DG and then stimulated with 10 nmol/L PMA. As control cells, monocytic cells (U937) to which neither phorbol ester nor 2-DG had been administered were used. At 24 hours after stimulation, cells were collected, RNA was extracted, cDNA was constructed from RNA, and then the resultant was arrayed. The results of arraying were analyzed by GeneSpring GX10 software, so that the expression levels of the atherosclerosis induction- and/or aneurysm-related genes of each cell sample were evaluated. […]

Compound | MMP-9 activity in ex vivo culture of the human AAA wall (MMP-9 [1]) | aneurysm formation (aortic diameter) [2] | SIRT1 gene expression level (SIRT1 gene) | PMA-induced MMP-9 activity (MMP-9 [3]) | expansion of aortic diameter following application of calcium chloride ([4]; C57BL/6J mice, 100 mg/kg or 1 g/kg body weight/day intraperitoneally for 28 days, FIG. 3) | vascular wall structure (tunica media layers, cytoprotective effect) ([4]; calcium chloride mouse aneurysm model, mice treated with 2-DG) | expression levels of atherosclerosis induction- and/or aneurysm-related genes (MMP-1, CCL-2, TNF-α, MMP-9, CCL-8, IL-6), mRNA [5]
O=CC[C@@H](O)[C@H](O)[C@H](O)CO [2-DG, 2-deoxyglucose] | suppressed | suppressed | significantly increased | decreased | suppressed | maintained the vascular wall structure | decreased
O=C(CCc1ccc(O)cc1)c1c(O)cc(O)cc1O [phloretin] |  |  |  | decreased |  |  | 
cytochalasin |  |  |  | decreased |  |  | 
